Columns and labels:
[1] = target: T1, Bifunctional epoxide hydrolase 2 (Homo sapiens) (UniProt P34913); test: Inhibition of recombinant human sEH at 100 nM using PHOME as substrate measured after 15 mins by fluorescence assay relative to control
T1 sequence (whole entry): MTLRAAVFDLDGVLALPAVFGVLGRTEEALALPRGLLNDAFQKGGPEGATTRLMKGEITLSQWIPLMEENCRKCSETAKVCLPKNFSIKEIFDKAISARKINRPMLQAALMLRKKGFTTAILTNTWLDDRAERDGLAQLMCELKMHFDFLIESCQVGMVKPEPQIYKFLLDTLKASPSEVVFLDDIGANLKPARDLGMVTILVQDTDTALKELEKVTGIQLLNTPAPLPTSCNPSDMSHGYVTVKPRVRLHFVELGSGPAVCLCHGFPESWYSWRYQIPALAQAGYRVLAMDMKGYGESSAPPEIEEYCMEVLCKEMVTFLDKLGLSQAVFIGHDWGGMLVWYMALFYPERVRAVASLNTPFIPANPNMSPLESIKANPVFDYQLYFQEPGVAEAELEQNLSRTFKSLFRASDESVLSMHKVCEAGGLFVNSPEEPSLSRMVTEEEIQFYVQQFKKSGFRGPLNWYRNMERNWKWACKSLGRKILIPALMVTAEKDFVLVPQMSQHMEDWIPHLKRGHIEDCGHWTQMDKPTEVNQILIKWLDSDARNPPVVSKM

[2] = target: T2, Bifunctional epoxide hydrolase 2 (Homo sapiens, UniProt P34913); test: Inhibition of recombinant human sEH using PHOME as substrate measured after 15 mins by fluorescence assay
T2 sequence (P34913 whole entry): T1 sequence (whole entry)

[3] = test system: Mus musculus; test: Antiinflammatory activity in BALB/c mouse model of carrageenan-induced paw edema assessed as paw edema at 100 mg/kg, ip pretreated for 1 hr followed by carrageenan challenge and measured after 4 hrs by caliper method relative to control; type: functional; details: time 5 hrs
[4] = test system: Mus musculus; test: Antiinflammatory activity in BALB/c mouse model of carrageenan-induced paw edema assessed as paw thickness at 100 mg/kg, ip pretreated for 1 hr followed by carrageenan challenge and measured after 1 hr by caliper method (reference value: 3.51 +/- 0.19 millimeter); type: functional; details: time 2 hrs
[5] = test system: Mus musculus; test: Antiinflammatory activity in BALB/c mouse model of carrageenan-induced paw edema assessed as paw thickness at 100 mg/kg, ip pretreated for 1 hr followed by carrageenan challenge and measured after 2 hrs by caliper method (reference value: 3.56 +/- 0.29 millimeter); type: functional; details: time 3 hrs
[6] = test system: Mus musculus; test: Antiinflammatory activity in BALB/c mouse model of carrageenan-induced paw edema assessed as paw thickness at 100 mg/kg, ip pretreated for 1 hr followed by carrageenan challenge and measured after 4 hrs by caliper method (reference value: 3.60 +/- 0.12 millimeter); type: functional; details: time 5 hrs
[7] = test system: Mus musculus; test: Antiinflammatory activity in BALB/c mouse model of carrageenan-induced paw edema assessed as paw edema at 100 mg/kg, ip pretreated for 1 hr followed by carrageenan challenge and measured after 3 hrs by caliper method relative to control; type: functional; details: time 4 hrs
[8] = test system: Mus musculus; test: Antiinflammatory activity in BALB/c mouse model of carrageenan-induced paw edema assessed as paw edema at 100 mg/kg, ip pretreated for 1 hr followed by carrageenan challenge and measured after 2 hrs by caliper method relative to control; type: functional; details: time 3 hrs
[9] = test system: Mus musculus; test: Antiinflammatory activity in BALB/c mouse model of carrageenan-induced paw edema assessed as paw edema at 100 mg/kg, ip pretreated for 1 hr followed by carrageenan challenge and measured after 1 hr by caliper method relative to control; type: functional; details: time 2 hrs
[10] = test system: Mus musculus; test: Antiinflammatory activity in BALB/c mouse model of carrageenan-induced paw edema assessed as paw thickness at 100 mg/kg, ip pretreated for 1 hr followed by carrageenan challenge and measured after 3 hrs by caliper method (reference value: 3.61 +/- 0.36 millimeter); type: functional; details: time 4 hrs
[11] = in vitro; details: Sprague-Dawley, rat, liver microsomes
Description: Half life in Sprague-Dawley rat liver microsomes at 10 uM measured up to 60 mins in presence of NADPH regenerating system by HPLC analysis

[12] = in vitro; details: Sprague-Dawley, rat, liver microsomes; remark: listed apart in the source
Description: Stability in Sprague-Dawley rat liver microsomes assessed as parent compound remaining at 10 uM measured after 60 mins in absence of NADPH regenerating system by HPLC analysis

[13] = in vitro; details: Sprague-Dawley, rat, liver microsomes; remark: listed apart in the source
Description: Stability in Sprague-Dawley rat liver microsomes assessed as parent compound remaining at 10 uM measured after 60 mins in presence of NADPH regenerating system by HPLC analysis

[14] = in vitro; details: Sprague-Dawley, rat, liver microsomes; remark: listed apart in the source
[15] = in vitro; details: Sprague-Dawley, rat, liver microsomes; remark: listed apart in the source

## Nc1nc2ccc(N(CCCN3CCOCC3)C(=O)Nc3ccc(Cl)cc3)cc2s1
[1]
  inhibition: 9.44%

## Nc1nc2ccc(N(CCN3CCOCC3)C(=O)Nc3ccc([N+](=O)[O-])cc3)cc2s1
[1]
  inhibition: 19.2%

## Nc1nc2ccc(N(CCN3CCCC3)C(=O)Nc3ccc(Cl)cc3)cc2s1
[1]
  inhibition: 48.3%

## O=C(Cc1ccc(Cl)cc1Cl)Nc1nc2ccc(N(CCN3CCOCC3)C(=O)Nc3ccc(Cl)cc3)cc2s1
[1]
  inhibition: 71.8%

## Nc1nc2ccc(NC(=O)Nc3ccccc3)cc2s1
[1]
  inhibition: 40.1%

## O=C(Cc1ccc(F)cc1)Nc1nc2ccc(N(CCN3CCOCC3)C(=O)Nc3ccc(Cl)cc3)cc2s1
[1]
  inhibition: 74.9%

## CCc1ccc(NC(=O)N(CCN2CCOCC2)c2ccc3nc(NC(=O)Cc4ccccc4)sc3c2)cc1
[1]
  inhibition: 76.8%

## Cc1cccc(NC(=O)N(CCN2CCOCC2)c2ccc3nc(N)sc3c2)c1
[1]
  inhibition: 61.7%
[2]
  IC50: 101 nM

## Nc1nc2ccc(NC(=O)Nc3cccc4ccccc34)cc2s1
[1]
  inhibition: 34.1%

## CC(C)Oc1ccc(NC(=O)N(CCN2CCOCC2)c2ccc3nc(N)sc3c2)cc1
[1]
  inhibition: 56.6%
[2]
  IC50: 122 nM

## COc1ccc(CC(=O)Nc2nc3ccc(N(CCN4CCOCC4)C(=O)Nc4ccc(Cl)cc4)cc3s2)cc1F
[1]
  inhibition: 58.1%

## O=C(Nc1nc2ccc(N(CCN3CCOCC3)C(=O)Nc3ccc(Cl)cc3)cc2s1)C1CC1
[1]
  inhibition: 32.5%

## O=C(NC12CC3CC(CC(C3)C1)C2)N[C@H]1CC[C@H](Oc2ccc(C(=O)O)cc2)CC1
[3]
  Activity: 24.71%
[4]
  Activity: 3.3 mm
[5]
  Activity: 3.23 mm
[6]
  Activity: 3.28 mm
[7]
  Activity: 24.98%
[8]
  Activity: 22.61%
[9]
  Activity: 25.01%
[10]
  Activity: 3.29 mm

## O=C(NCc1ccc(Cl)cc1)Nc1nc2ccc([N+](=O)[O-])cc2s1
[1]
  inhibition: 10.9%

## CC(C)c1ccc(NC(=O)N(CCN2CCOCC2)c2ccc3nc(N)sc3c2)cc1
[1]
  inhibition: 75.2%
[2]
  IC50: 11.2 nM

## O=C(O)Cc1ccccc1Nc1c(Cl)cccc1Cl [DICLOFENAC]
[11]
  half-life at 1 h, 10 µM: 23.4 min
[12]
  remaining at 1 h, 10 µM: 96.3%
[13]
  remaining at 1 h, 10 µM: 16.9%
[14]
  microsomal CLint at 1 h, 10 µM: 59.3 µL/min/mg
[15]
  microsomal CLint at 1 h, 10 µM: 107 µL/min/mg

## Nc1nc2ccc(N(CCN3CCOCC3)C(=O)Nc3ccc(C(F)(F)F)cc3)cc2s1
[1]
  inhibition: 62%

## Nc1nc2ccc(N(CCN3CCOCC3)C(=O)Nc3ccc(OC(F)(F)F)cc3)cc2s1
[1]
  inhibition: 61.3%

## CC(=O)Nc1ccc2nc(NC(=O)NCc3ccc(Cl)cc3)sc2c1
[1]
  inhibition: 14.5%

## Nc1nc2ccc(NC(=O)Nc3ccccn3)cc2s1
[1]
  inhibition: 20.5%

## Nc1nc2ccc(N(CCN3CCCCC3)C(=O)Nc3ccc(Cl)cc3)cc2s1
[1]
  inhibition: 84.6%
[2]
  IC50: 6.5 nM

## CC(=O)Nc1nc2ccc(N(CCN3CCOCC3)C(=O)Nc3ccc(Cl)cc3)cc2s1
[1]
  inhibition: 68.1%

## Nc1nc2ccc(N(CCN3CCOCC3)C(=O)Nc3ccccc3)cc2s1
[1]
  inhibition: 40.4%

## Nc1nc2ccc(N(CCN3CCOCC3)C(=O)Nc3ccc(Cl)cc3Cl)cc2s1
[1]
  inhibition: 58.4%

## CCN(CC)CCN(C(=O)Nc1ccc(Cl)cc1)c1ccc2nc(N)sc2c1
[1]
  inhibition: 86.3%
[2]
  IC50: 24.5 nM

## O=C(Nc1ccc(Cl)cc1)Nc1nc2ccc([N+](=O)[O-])cc2s1
[1]
  inhibition: 7.2%

## O=C(Nc1nc2ccc(N(CCN3CCOCC3)C(=O)Nc3ccc(Cl)cc3)cc2s1)c1ccc(F)cc1
[1]
  inhibition: 64%

## Nc1ccc2nc(NC(=O)NCc3ccc(Cl)cc3)sc2c1
[1]
  inhibition: 14.2%

## Nc1nc2ccc(NC(=O)NCc3ccc(Cl)cc3)cc2s1
[1]
  inhibition: 47%

## Nc1nc2ccc(N(CCN3CCOCC3)C(=O)Nc3cccc4ccccc34)cc2s1
[1]
  inhibition: 39%
[2]
  IC50: 151 nM

## CC(=O)c1ccc(NC(=O)N(CCN2CCOCC2)c2ccc3nc(N)sc3c2)cc1
[1]
  inhibition: 28.2%

## Nc1nc2ccc(NC(=O)NC34CC5CC(CC(C5)C3)C4)cc2s1
[1]
  inhibition: 77.3%
[2]
  IC50: 822 nM

## CN1CCN(C(=O)Nc2nc3ccc(N(CCN4CCOCC4)C(=O)Nc4ccc(Cl)cc4)cc3s2)CC1
[1]
  inhibition: 64%

## O=C(Cc1ccc(Cl)cc1)Nc1nc2ccc(N(CCN3CCOCC3)C(=O)Nc3ccc(Cl)cc3)cc2s1
[1]
  inhibition: 71.9%

## O=C(Cc1ccccc1F)Nc1nc2ccc(N(CCN3CCOCC3)C(=O)Nc3ccc(Cl)cc3)cc2s1
[1]
  inhibition: 82.5%
[2]
  IC50: 4.08 nM

## O=C(CCc1ccccc1)Nc1nc2ccc(N(CCN3CCOCC3)C(=O)Nc3ccc(Cl)cc3)cc2s1
[1]
  inhibition: 77.7%

## Nc1nc2ccc(N(CCN3CCOCC3)C(=O)Nc3ccccc3Cl)cc2s1
[1]
  inhibition: 59.7%

## O=C(Cc1ccc(Br)cc1)Nc1nc2ccc(N(CCN3CCOCC3)C(=O)Nc3ccc(Cl)cc3)cc2s1
[1]
  inhibition: 70.6%

## COc1ccc(CC(=O)Nc2nc3ccc(N(CCN4CCOCC4)C(=O)Nc4ccc(Cl)cc4)cc3s2)cc1
[1]
  inhibition: 65.8%

## Nc1nc2ccc(N(CCN3CCOCC3)C(=O)Nc3ccccn3)cc2s1
[1]
  inhibition: 16.2%

## CC1CCN(CCN(C(=O)Nc2ccc(Cl)cc2)c2ccc3nc(N)sc3c2)CC1
[1]
  inhibition: 77.5%
[2]
  IC50: 20.2 nM

## Cc1ccccc1NC(=O)N(CCN1CCOCC1)c1ccc2nc(N)sc2c1
[1]
  inhibition: 26.3%

## O=C(Nc1nc2ccc(N(CCN3CCOCC3)C(=O)Nc3ccc(Cl)cc3)cc2s1)c1ccccc1
[1]
  inhibition: 48.8%

## O=C(Nc1ccc(Cl)cc1)Nc1nc2ccc(NCCN3CCOCC3)cc2s1
[1]
  inhibition: 16.2%

## CCc1ccc(NC(=O)N(CCN2CCOCC2)c2ccc3nc(N)sc3c2)cc1
[1]
  inhibition: 84.7%
[2]
  IC50: 1.9 nM

## Nc1nc2ccc(N(CCN3CCOCC3)C(=O)Nc3ccc(F)cc3)cc2s1
[1]
  inhibition: 74.3%

## Nc1nc2ccc(N(CCN3CCOCC3)C(=O)Nc3ccc(Br)cc3)cc2s1
[1]
  inhibition: 83.8%
[2]
  IC50: 16.2 nM

## Nc1nc2ccc(NC(=O)Nc3ccc(OC(F)(F)F)cc3)cc2s1
[1]
  inhibition: 60.2%

## Nc1nc2ccc(N(CCN3CCOCC3)C(=O)Nc3cccc(C(F)(F)F)c3)cc2s1
[1]
  inhibition: 6.18%

## Nc1nc2ccc(N(CCN3CCOCC3)C(=O)NCc3ccc(Cl)cc3)cc2s1
[1]
  inhibition: 14.5%

## CN1CCN(CCN(C(=O)Nc2ccc(Cl)cc2)c2ccc3nc(N)sc3c2)CC1
[1]
  inhibition: 45.9%

## CCc1ccc(NC(=O)N(CCN2CCOCC2)c2ccc3nc(NC(=O)Cc4ccccc4F)sc3c2)cc1
[1]
  inhibition: 85.2%
[2]
  IC50: 5.4 nM

## COc1ccc(NC(=O)Nc2ccc3nc(N)sc3c2)cc1
[1]
  inhibition: 39.3%

## Nc1nc2ccc(NC(=O)Nc3ccc(Cl)cc3)cc2s1
[1]
  inhibition: 76.1%
[2]
  IC50: 10.1 nM

## O=C(Cc1ccccc1F)Nc1nc2ccc(N(CCN3CCOCC3)C(=O)Nc3ccc(F)c(Br)c3)cc2s1
[1]
  inhibition: 73.8%

## Nc1nc2ccc(NC(=O)NC3CCCCC3)cc2s1
[1]
  inhibition: 59.9%
[2]
  IC50: 4.1 nM

## Nc1nc2ccc(N(CCN3CCOCC3)C(=O)Nc3cccc(Cl)c3)cc2s1
[1]
  inhibition: 36.5%

## CC(=O)Nc1ccc2nc(NC(=O)Nc3ccc(Cl)cc3)sc2c1
[1]
  inhibition: 12.5%

## CC(=O)Nc1ccc(NC(=O)N(CCN2CCOCC2)c2ccc3nc(N)sc3c2)cc1
[1]
  inhibition: 59.4%

## Cc1ccc(NC(=O)N(CCN2CCOCC2)c2ccc3nc(N)sc3c2)cc1
[1]
  inhibition: 73.1%
[2]
  IC50: 8.3 nM

## CN(C)CCN(C(=O)Nc1ccc(Cl)cc1)c1ccc2nc(N)sc2c1
[1]
  inhibition: 39.1%

## Nc1ccc2nc(NC(=O)Nc3ccc(Cl)cc3)sc2c1
[1]
  inhibition: 6.7%

## O=C(Cc1ccccc1)Nc1nc2ccc(N(CCN3CCOCC3)C(=O)Nc3ccc(F)c(Br)c3)cc2s1
[1]
  inhibition: 74.2%

## NC(=O)Nc1ccc2nc(N)sc2c1
[1]
  inhibition: 25.3%

— ChEMBL document CHEMBL4706628, “Ligand-based optimization to identify novel 2-aminobenzo[d]thiazole derivatives as potent sEH inhibitors with anti-inflammatory effects” (Eur J Med Chem, 2021)
